Measurements reported in US20200347136A1, “CONSTRAINED CYCLIC PEPTIDES AS INHIBITORS OF THE CD2:CD58 PROTEIN-PROTEIN INTERACTION FOR TREATMENT OF DISEASES AND AUTOIMMUNE DISORDERS” (Board of Supervisors for the University of Louisiana System, priority 2019, published 2020).
Numbered stars: 1 amine (or outer) side, 2 acyl side, 3 side chain; on linkers, the order of the positions; unused ones are H or OH. Bridge positions count the residues as written; N and C are the ends. Square brackets hold non-standard residues; d marks the D form. Peptide text beside a SMILES is read from it. βAla(3R-(1-naphthyl)) = O=C(C[C@@H](N[*:1])c1cccc2ccccc12)[*:2]; βAla(3S-(1-naphthyl)) = O=C(C[C@H](N[*:1])c1cccc2ccccc12)[*:2]; X1 = O=C(CCc1cccc2c1oc1c(CCN[*:1])cccc12)[*:2]

Columns and labels:
MCF-7 cells = details: read-out: IC50 MCF-7 (HER2−); antiproliferative activity
Description: (§1) Antiproliferative activity of grafted cyclic peptides. Antiproliferative activity of the designed grafted peptides was evaluated in different HER2-overexpressing cancer cell lines as well as HER2 negative cancer cell lines.
(§2) Table 1. […] Single letter amino acid code was used for peptide sequence. Lower case letters refer to D amino acids and capital letters refer to L amino acids. Chirality of Anapa was indicated with R and S configuration in italics. Antiproliferative activity of peptides in cancer cell lines are given as IC50 in μM. Disulfide bonds between the cysteines are underlined.

Calu-3 cells = details: read-out: IC50 Calu-3 (HER2+); antiproliferative activity
Description: as §1, §2

A549 cells = details: read-out: IC50 A549 (HER2+); antiproliferative activity
Description: as §1, §2

BT-474 cells = details: for IC50: read-out: IC50 BT-474 (HER2+), antiproliferative activity
Description: as §1, §2

[1] = tested on: collagen-induced arthritis; details: cited from earlier work
[2] = tested on: CD2:CD58 interaction (SRBC expressing CD58 / Jurkat cells expressing CD2); assay: E-rosetting assay, sheep red blood cells / Jurkat T cells; format: cell-based
Description: Peptides were added to AET-treated sheep red blood cells (SRBC) (expressing CD58 protein) first, and Jurkat cells (expressing CD2 protein) labeled with BCECF were added later. Cells with five or more SRBC bound were counted as rosettes. Values are percent inhibition of peptide-treated cells and are expressed as the mean of three experimental values. Error bars represent standard error of the mean (SEM).
The ability of peptides to inhibit cell adhesion was evaluated using E-rosetting assay via interaction between sheep red blood cells (SRBC) expressing CD58 and Jurkat T cells expressing CD2 protein. When these cells are incubated, they adhere to each other. Each Jurkat cell adheres to many sheep red blood cells. Five or more SRBC adhering to a Jurkat cell is counted as positive E-rosetting.

[3] = target: T1, CD2:CD58 interaction (Jurkat T cells / OVCAR-3 cells) (Homo sapiens, UniProt P19256); assay: cell adhesion inhibition, Jurkat / OVCAR-3 cells; format: cell-based
T1 construct: CD2+ Jurkat T cells and CD58+ OVCAR-3 cells; endogenous in cells; host or cells: OVCAR-3 (CD58) and Jurkat (CD2)
T1 sequence (P19256 29-250): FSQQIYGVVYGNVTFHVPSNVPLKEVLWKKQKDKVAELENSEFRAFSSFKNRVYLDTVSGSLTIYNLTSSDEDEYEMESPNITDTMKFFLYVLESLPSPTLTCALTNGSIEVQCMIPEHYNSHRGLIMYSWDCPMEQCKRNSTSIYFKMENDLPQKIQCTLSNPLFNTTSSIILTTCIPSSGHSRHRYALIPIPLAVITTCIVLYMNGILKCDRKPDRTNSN
Description: (§7) The ability of peptides to inhibit the CD2:CD58 protein-protein interaction was studied by evaluating the adhesion interaction between cells using model systems. […] The model systems we used included Jurkat and ovarian cancer (OVACR-3) cells and Jurkat and human fibroblast-like synoviocyte-rheumatoid arthritis (HFLS-RA) cells. Since OVCAR-3 cells and HFLS-RA cells express CD58, adhesion interactions between CD2 and CD58 can be studied using these model systems. Peptides were incubated with adherent cells that expressed CD58, and Jurkat cells were added to evaluate the adhesion. […] A broad range of concentrations (0.0005 to 200 μM) was used in the first screen and based on the inhibitory activity of the peptides in that concentration range, data points for a dose-response study were chosen. The concentration-response curves for the various peptides were obtained in the range of 0.0005 to 10 μM.
(§8) Cell adhesion was also evaluated in a well-established E-rosetting assay. […] To evaluate the cell adhesion inhibitory activity of peptides from cells associated with autoimmune disease, we used HFLS-RA cells derived from RA patients.

[4] = target: T2, CD2:CD58 interaction (Jurkat T cells / HFLS-RA cells) (Homo sapiens, UniProt P19256); assay: cell adhesion inhibition, Jurkat / HFLS-RA cells; format: cell-based
T2 construct: we used HFLS-RA cells derived from RA patients; endogenous in cells; host or cells: HFLS-RA (CD58) and Jurkat (CD2)
T2 sequence (P19256 29-250): T1 sequence (P19256 29-250)
Description: as §7, §8

CD2:CD58 [5] = assay: Cell adhesion inhibition IC50 (µM) | T cell-HFLS-RA
Description: (§3) Table printed on a drawing sheet, Fig. 5
Head of the field: Cell adhesion inhibition IC50 (µM) | T cell-HFLS-RA
(§4) Table of stable peptides designed based on sunflower trypsin inhibitor (SFTI) and their cell adhesion inhibition activities in a model system. OVCAR-3 and HFLS-RA cells express CD58. Jurkat T cells express CD2 protein. Inhibition of adhesion between Jurkat and OVCAR-3/HFLS-RA cells was evaluated. Cell adhesion inhibition is represented as IC50 value
(§5) First copying reader's note: In the SFTI sequences the stretch from the first C to the second C is underlined on the sheet; the ± error stands inside the IC50 cells.
(§6) Where the first naming reader finds the target: description_of_the_figure: OVCAR-3 and HFLS-RA cells express CD58. Jurkat T cells express CD2 protein. Inhibition of adhesion between Jurkat and OVCAR-3/HFLS-RA cells was evaluated.

CD2:CD58 interaction = target: T3, CD2:CD58 interaction (Homo sapiens, UniProt P19256); assay: cell adhesion inhibition between T cells (CD2) and epithelial cells (CD58), model systems; format: cell-based
T3 construct: Peptides were incubated with adherent cells that expressed CD58; endogenous in cells; host or cells: Jurkat T cells with OVCAR-3 or HFLS-RA cells
T3 sequence (P19256 29-250): T1 sequence (P19256 29-250)
Description: as §7

CD2:CD58 [6] = assay: Cell adhesion inhibition IC50 (µM) | T cell-OVCAR-3
Description: as §3
Head of the field: Cell adhesion inhibition IC50 (µM) | T cell-OVCAR-3
as §4, §5, §6

Calu-3 xenograft tumors = assay: Calu-3 xenograft model of lung cancer in nude mice; format: in vivo; details: Calu-3 xenograft; SFTI-G5 8 mg/kg intratumoral thrice a week; antibodies 12 then 6 mg/kg once a week
Description: 5×10^6 Calu-3 cells suspended in serum-free medium were subcutaneously inoculated in left flank region of mice to induce lung cancer (Foxn1-nude). Peptide (8 mg/kg) was administered via intratumoral injection three times a week after 10 days, Pertuzumab was injected with a loading dose of 12 mg/kg and then 6 mg/kg as maintenance dose intraperitonially once a week, Trastuzumab and pertuzumab combination was injected at a loading dose of 12 mg/kg and then 6 mg/kg as maintenance dose once a week. […] For comparison, pertuzumab (up triangle, blue) and trastuzumab and pertuzumab combination (down triangle, red) also shown (with standard errors for n=6). […] C) PPI inhibition assessed by PLA on tumor tissue sample. […] Tumor sections were homogenized, and protein was extracted and subjected to Western blot. […] (** p<0.01). Mean±SEM.
HER2 dimerization inhibitors such as pertuzumab and trastuzumab and pertuzumab combinations were also administered as control groups (FIG. 11A). […] During the course of the experiment, the tumor size in the control xenograft group without any treatment continued to increase, reaching a diameter of ˜9 mm in 28 days (FIG. 11B).
To evaluate the phosphorylation of HER2 protein, Western blot analysis was performed on frozen tumor samples.

`N=C(N)NCCC[C@@H]1NC(=O)[C@H]2CCCN2C(=O)[C@@H]2CCCN2C(=O)[C@H](CCCNC(=N)N)NC(=O)C[C@H](c2cccc3ccccc23)NC(=O)[C@H](Cc2ccccc2)NC(=O)[C@H](CC(=O)O)NC(=O)[C@H](CC(=O)O)NC(=O)[C@H](Cc2ccccc2)NC(=O)C[C@H](c2cccc3ccccc23)NC1=O` [Compound 18, Cyclo(PpR(R-X)FDDF(R-X)R), reference compound] (cyclo(P[dP]R[βAla(3R-(1-naphthyl))]FDDF[βAla(3R-(1-naphthyl))]R)) gave an IC50 (MCF-7 cells) greater than 50 µM.
Work on `CC[C@H](C)[C@@H]1NC(=O)[C@H](C)NC(=O)C[C@@H](c2cccc3ccccc23)NC(=O)[C@@H]2CSSC[C@H](NC(=O)C[C@@H](c3cccc4ccccc34)NC(=O)[C@H](C)NC(=O)[C@@H]3CCCN3C(=O)[C@@H]3CCCN3C1=O)C(=O)N[C@@H](C)C(=O)N1CCC[C@H]1C(=O)N[C@@H](CC(=O)O)C(=O)N[C@@H](C)C(=O)N[C@@H](Cc1ccccc1)C(=O)N2` [Control-G, Cyclo(C(S-X)AIPPA(S-X)CAPDAF), reference compound] (cyclo(AFC[βAla(3S-(1-naphthyl))]AIPPA[βAla(3S-(1-naphthyl))]CAPD); disulfide 3-11) yielded an IC50 (MCF-7 cells) greater than 50 µM, an IC50 (Calu-3 cells) greater than 50 µM and an IC50 (A549 cells) greater than 50 µM. The IC50 (BT-474 cells) was greater than 50 µM.
In the case of `CC[C@H](C)[C@@H]1NC(=O)[C@H](CC(=O)O)NC(=O)[C@H](CC(=O)O)NC(=O)[C@@H]2CCCN2C(=O)[C@H]2CCCN2C(=O)[C@H](CC(=O)O)NC(=O)[C@H](Cc2ccc(O)cc2)NC(=O)[C@H]([C@@H](C)CC)NC(=O)[C@H](CO)NC(=O)[C@H](CCCCN)NC1=O` [Peptide 6, Cyclo(SIYDpPDDIK)], the histopathology of paws ([1]; 0.5 mg/kg) is given as “clear joint space with normal cartilage interface”, the “anti-CII antibodies in sera” value ([1]; 0.5 and 1 mg/kg i.v.) is given as “dose-dependent reduction” and the “acute clinical signs of illness / direct toxicity” value ([1]; DBA/1 mice, during dosing) is given as “minimal, if any, direct toxicity”. The IC50 [2] was 0.0094 ± 0.0003 µM.
In the case of `C[C@@H]1NC(=O)[C@@H]2CSSC[C@H](NC(=O)[C@H](CC(=O)O)NC(=O)[C@H](CC(=O)O)NC(=O)CNC(=O)[C@H](CC(=O)O)NC(=O)[C@H](Cc3ccc(O)cc3)NC1=O)C(=O)N[C@@H](CCCCN)C(=O)N[C@@H](CO)C(=O)N[C@@H](C)C(=O)NCCc1cccc3c1Oc1c(cccc1-3)CCC(=O)N[C@@H](CO)C(=O)N2` [SFTI-DBF] (cyclo(AYDGDDCKSA[X1]SC); disulfide 7-13), the IC50 [3] is reported as 0.00061 µM and the IC50 [4] is reported as 0.003 µM.
Compound `CC[C@H](C)[C@@H]1NC(=O)[C@H](CO)NC(=O)[C@H](CC(=O)O)NC(=O)[C@H](Cc2ccccc2)NC(=O)[C@@H]2CSSC[C@H](NC(=O)[C@H](Cc3ccccc3)NC(=O)[C@H](CC(=O)O)NC1=O)C(=O)N[C@H](c1cccc3ccccc13)CC(=O)N[C@@H](CCCNC(=N)N)C(=O)N[C@@H](CC(=O)O)C(=O)N[C@@H](CCCNC(=N)N)C(=O)N[C@H](c1cccc3ccccc13)CC(=O)N2` [SFTI-G1, Cyclo(C(S-X)RDR(S-X)CFDSIDF)] (cyclo(C[βAla(3S-(1-naphthyl))]RDR[βAla(3S-(1-naphthyl))]CFDSIDF); disulfide 1-7) has an IC50 (MCF-7 cells) greater than 50 µM and an IC50 (BT-474 cells) of 4.16 ± 0.179 µM.
Compound `N=C(N)NCCC[C@@H]1NC(=O)[C@H]2CCCN2C(=O)[C@@H]2CCCN2C(=O)[C@H](CCCNC(=N)N)NC(=O)C[C@H](c2cccc3ccccc23)NC(=O)[C@@H]2CSSC[C@H](NC(=O)C[C@H](c3cccc4ccccc34)NC1=O)C(=O)N[C@@H](Cc1ccccc1)C(=O)N[C@@H](Cc1ccccc1)C(=O)N2` [SFTI-G2, Cyclo(C(R-X)RPpR(R-X)CFF)] (cyclo(C[βAla(3R-(1-naphthyl))]RP[dP]R[βAla(3R-(1-naphthyl))]CFF); disulfide 1-8) has an IC50 (MCF-7 cells) greater than 50 µM and an IC50 (BT-474 cells) of 5.23 ± 1.38 µM.
Work on `N=C(N)NCCC[C@@H]1NC(=O)[C@@H]2CCCN2C(=O)[C@@H]2CCCN2C(=O)[C@H](CCCNC(=N)N)NC(=O)C[C@H](c2cccc3ccccc23)NC(=O)[C@@H]2CSSC[C@H](NC(=O)C[C@H](c3cccc4ccccc34)NC1=O)C(=O)N[C@@H](Cc1ccccc1)C(=O)N2` [SFTI-G3, Cyclo(C(R-X)RPPR(R-X)CF)] (cyclo(C[βAla(3R-(1-naphthyl))]RPPR[βAla(3R-(1-naphthyl))]CF); disulfide 1-8) yielded an IC50 (MCF-7 cells) greater than 50 µM and an IC50 (BT-474 cells) of 3.65 ± 0.41 µM.
For `CC[C@H](C)[C@@H]1NC(=O)[C@H](CO)NC(=O)[C@H](CC(=O)O)NC(=O)[C@H](Cc2ccccc2)NC(=O)[C@@H]2CSSC[C@H](NC(=O)[C@H](Cc3ccccc3)NC(=O)[C@H](CC(=O)O)NC(=O)[C@@H]3CCCN3C(=O)[C@@H]3CCCN3C1=O)C(=O)N[C@H](c1cccc3ccccc13)CC(=O)N[C@@H](CCCNC(=N)N)C(=O)N1CCC[C@H]1C(=O)NCC(=O)N[C@@H](CCCNC(=N)N)C(=O)N[C@H](c1cccc3ccccc13)CC(=O)N2` [SFTI-G4] (cyclo(C[βAla(3S-(1-naphthyl))]RPGR[βAla(3S-(1-naphthyl))]CFDSIPPDF); disulfide 1-8), the IC50 (MCF-7 cells) was greater than 30 µM and the IC50 (BT-474 cells) was 17.2 ± 1.03 µM.
For `CC[C@H](C)[C@@H]1NC(=O)[C@H](CCCNC(=N)N)NC(=O)C[C@H](c2cccc3ccccc23)NC(=O)[C@@H]2CSSC[C@H](NC(=O)C[C@H](c3cccc4ccccc34)NC(=O)[C@H](CCCNC(=N)N)NC(=O)[C@@H]3CCCN3C(=O)[C@@H]3CCCN3C1=O)C(=O)N[C@@H](Cc1ccccc1)C(=O)N1CCC[C@H]1C(=O)N[C@@H](CC(=O)O)C(=O)N[C@@H](CC(=O)O)C(=O)N[C@@H](Cc1ccccc1)C(=O)N2` [SFTI-G6, Cyclo(C(R-X)RIPPR(R-X)CFPDDF)], the IC50 (MCF-7 cells) was greater than 50 µM, the “change of antiproliferative activity on altering Anapa chirality (S to R)” value (BT-474 cells; SFTI-G6 versus SFTI-G5) was “tenfold decrease” and the IC50 (BT-474 cells) was 2.94 ± 1.06 µM.
In the case of `C[C@@H]1NC(=O)[C@@H]2CSSC[C@H](NC(=O)[C@H](CC(=O)O)NC(=O)[C@H](CC(=O)O)NC(=O)CNC(=O)[C@H](CC(=O)O)NC(=O)[C@H](Cc3ccc(O)cc3)NC1=O)C(=O)N[C@@H](CCCCN)C(=O)N[C@@H](CO)C(=O)N[C@@H](C)C(=O)N1CCC[C@H]1C(=O)N1CCC[C@H]1C(=O)N[C@@H](CO)C(=O)N2` [SFTI-a1] (cyclo(APPSCAYDGDDCKS); disulfide 5-12), the IC50 (CD2:CD58 [5]) is reported as 0.0388 ± 0.0102 µM and the IC50 (CD2:CD58 interaction) is reported as 0.022 µM.
With `C[C@@H]1NC(=O)[C@H](CCCCN)NC(=O)[C@@H]2CSSC[C@H](NC(=O)[C@H](CO)NC(=O)[C@@H]3CCCN3C(=O)[C@@H]3CCCN3C(=O)[C@H](C)NC(=O)[C@H](CO)NC1=O)C(=O)N[C@@H](Cc1ccc(O)cc1)C(=O)N[C@@H](CC(=O)O)C(=O)NCC(=O)N[C@@H](CC(=O)O)C(=O)N[C@@H](CC(=O)O)C(=O)N2` [SFTI-a] (cyclo(APPSCYDGDDCKAS); disulfide 5-11) the IC50 (CD2:CD58 [6]) was 0.043 ± 0.025 µM.
“Cyclo(CTKSIPPICFPDGR) (cyclic) [SFTI-wt (control)]” gave an IC50 (CD2:CD58 [6]) greater than 50 µM and an IC50 (CD2:CD58 [5]) greater than 50 µM.
For “pertuzumab: antibody known to bind HER2 ECD domain II and inhibit dimerization of EGFRs [reference compound]”, the tumor growth (Calu-3 xenograft tumors) was “significantly reduced tumor growth progression”.
